Assay results published in patent US8546376B2, “Pharmaceutical compounds” (Almac Discovery Limited, priority 2009, dated 2013).
Where a name gives a salt, the structure may show the parent alone.

Tests used:
Assay type in all cases: biochemical
[1] = biological target: T1, AKT1 (Homo sapiens, UniProt P31749); assay: AKT Kinase Assay (IMAP fluorescent polarisation) vs AKT1; settings: activated AKT1, FAM Crosstide substrate
T1 construct: purchased SignalChem
Summary of the method: (§1)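 IC50 values came from non-linear regression of % inhibition relative to vehicle, measured by IMAP fluorescence polarisation (485/528 nm) after a 1 h room-temperature reaction of FAM-Crosstide and ATP. Each activated isoform was first exposed to compound for 45 min across fourteen half-log doses.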

[2] = biological target: T2, AKT2 (Homo sapiens, UniProt P31751); assay: AKT Kinase Assay (IMAP fluorescent polarisation) vs AKT2; settings: activated AKT2, FAM Crosstide substrate
T2 construct: purchased SignalChem
T2 sequence (P31751 whole entry): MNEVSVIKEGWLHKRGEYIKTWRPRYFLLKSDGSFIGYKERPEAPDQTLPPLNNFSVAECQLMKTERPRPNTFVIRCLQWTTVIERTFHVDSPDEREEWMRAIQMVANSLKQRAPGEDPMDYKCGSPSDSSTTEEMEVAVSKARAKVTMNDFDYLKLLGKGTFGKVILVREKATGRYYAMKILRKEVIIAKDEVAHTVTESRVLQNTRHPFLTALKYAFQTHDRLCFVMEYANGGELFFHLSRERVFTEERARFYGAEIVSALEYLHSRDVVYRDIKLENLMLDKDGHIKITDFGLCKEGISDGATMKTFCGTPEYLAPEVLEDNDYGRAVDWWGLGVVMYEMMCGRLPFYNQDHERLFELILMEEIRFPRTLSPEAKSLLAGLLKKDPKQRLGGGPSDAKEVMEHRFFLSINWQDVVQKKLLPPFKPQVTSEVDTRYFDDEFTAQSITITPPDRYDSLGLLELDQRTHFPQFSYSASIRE
Summary of the method: as §1

[3] = biological target: T3, AKT3 (Homo sapiens, UniProt Q9Y243); assay: AKT Kinase Assay (IMAP fluorescent polarisation) vs AKT3; settings: activated AKT3, FAM Crosstide substrate
T3 construct: purchased SignalChem
T3 sequence (Q9Y243 whole entry): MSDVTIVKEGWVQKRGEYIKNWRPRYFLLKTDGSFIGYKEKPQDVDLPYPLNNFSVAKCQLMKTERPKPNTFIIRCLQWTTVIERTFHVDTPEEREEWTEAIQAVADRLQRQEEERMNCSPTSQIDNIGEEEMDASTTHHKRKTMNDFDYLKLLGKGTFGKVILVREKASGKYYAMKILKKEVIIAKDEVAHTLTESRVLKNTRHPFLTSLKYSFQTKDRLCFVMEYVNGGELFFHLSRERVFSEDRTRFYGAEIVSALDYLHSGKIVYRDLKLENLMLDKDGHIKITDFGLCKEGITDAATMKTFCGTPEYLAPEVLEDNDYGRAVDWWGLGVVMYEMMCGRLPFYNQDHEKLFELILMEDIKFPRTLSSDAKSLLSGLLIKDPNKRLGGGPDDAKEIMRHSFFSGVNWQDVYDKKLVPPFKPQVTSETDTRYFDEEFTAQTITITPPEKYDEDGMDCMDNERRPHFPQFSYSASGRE
Summary of the method: as §1

T1 sequence (P31749 whole entry): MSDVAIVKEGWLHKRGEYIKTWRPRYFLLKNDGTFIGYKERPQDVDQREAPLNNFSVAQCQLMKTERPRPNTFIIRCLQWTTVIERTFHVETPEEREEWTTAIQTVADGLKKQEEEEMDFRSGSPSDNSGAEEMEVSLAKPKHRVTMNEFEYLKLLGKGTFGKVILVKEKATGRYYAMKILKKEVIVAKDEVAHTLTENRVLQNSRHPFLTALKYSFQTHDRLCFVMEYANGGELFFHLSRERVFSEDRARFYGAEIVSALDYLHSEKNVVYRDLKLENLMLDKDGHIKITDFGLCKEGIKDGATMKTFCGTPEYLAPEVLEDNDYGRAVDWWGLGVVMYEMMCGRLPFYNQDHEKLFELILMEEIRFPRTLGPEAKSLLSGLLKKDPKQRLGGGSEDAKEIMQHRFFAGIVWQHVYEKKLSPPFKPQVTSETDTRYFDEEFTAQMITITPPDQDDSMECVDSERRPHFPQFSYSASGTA

Structure (SMILES) | IC50 [1] | IC50 [2] | IC50 [3]
COc1cc2oc(-c3ccccc3)c(-c3ccc(C4(N)CCC4)cc3)c(=O)c2cc1C(N)=O [Example 10, 3-[4-(1-Amino-cyclobutyl)-phenyl]-7-methoxy-4-oxo-2-phenyl-4H-chromene-6-carboxylic acid amide] | 1 to 10 µM | ≤ 1 µM | 1 to 10 µM
C#Cc1cccc2c(=O)c(-c3ccc(C4(N)CCC4)cc3)c(-c3ccccc3)oc12 [Example 105, 3-[4-(1-Amino-cyclobutyl)-phenyl]-8-ethynyl-2-phenyl-chromen-4-one] | ≤ 1 µM | 1 to 10 µM | 1 to 10 µM
NC1(c2ccc(-c3c(-c4ccccc4)oc4ncccc4c3=O)cc2)CCC1 [Example 34, 3-[4-(1-Amino-cyclobutyl)-phenyl]-2-phenyl-pyrano[2,3-b]pyridin-4-one] | 1 to 10 µM | 1 to 10 µM | > 10 µM
COc1cc2c(=O)c(-c3ccc(C4(N)CCC4)cc3)c(-c3ccccc3)oc2cc1Br [Example 26, 3-[4-(1-Amino-cyclobutyl)-phenyl]-7-bromo-6-methoxy-2-phenyl-chromen-4-one] | > 10 µM | 1 to 10 µM | > 10 µM
Cc1n[nH]cc1-c1cccc2c(=O)c(-c3ccc(C4(N)CCC4)cc3)c(-c3ccccc3)oc12 [Example 73, 3-[4-(1-Amino-cyclobutyl)-phenyl]-8-(3-methyl-1H-pyrazol-4-yl)-2-phenyl-chromen-4-one hydrochloride] | ≤ 1 µM | ≤ 1 µM | 1 to 10 µM
COc1cc2c(=O)c(-c3ccc(C4(N)CCC4)cc3)c(-c3ccccc3)oc2cc1C#N [Example 30, 3-[4-(1-Amino-cyclobutyl)-phenyl]-6-methoxy-4-oxo-2-phenyl-4H-chromene-7-carbonitrile] | > 10 µM | 1 to 10 µM | 1 to 10 µM
COc1ccc2c(=O)c(-c3ccc(C4(N)CCC4)cc3)c(-c3ccccc3)oc2c1C(N)=O [Example 50, 3-[4-(1-Amino-cyclobutyl)-phenyl]-7-methoxy-4-oxo-2-phenyl-4H-chromene-8-carboxylic acid amide hydrochloride] | ≤ 1 µM | 1 to 10 µM | 1 to 10 µM
NC1(c2ccc(-c3c(-c4ccccc4)oc4c(Cl)nccc4c3=O)cc2)CCC1 [Example 42, 3-[4-(1-Amino-cyclobutyl)-phenyl]-8-chloro-2-phenyl-pyrano[2,3-c]pyridin-4-one hydrochloride] | ≤ 1 µM | ≤ 1 µM | 1 to 10 µM
CCc1nn(C)c2c1ccc1c(=O)c(-c3ccc(C4(N)CCC4)cc3)c(-c3ccccc3)oc12 [Example 98, 7-[4-(1-Amino-cyclobutyl)-phenyl]-3-ethyl-1-methyl-8-phenyl-1H-9-oxa-1,2-diaza-cyclopenta[a]naphthalen-6-one hydrochloride] | ≤ 1 µM | ≤ 1 µM | 1 to 10 µM
NC1(c2ccc(-c3c(-c4ccccc4)oc4cccc(F)c4c3=O)cc2)CCC1 [Example 3, 3-[4-(1-Amino-cyclobutyl)-phenyl]-5-fluoro-2-phenyl-chromen-4-one] | 1 to 10 µM | 1 to 10 µM | > 10 µM
CC(C)(C#N)c1ccc(-c2c(-c3ccccc3)oc3c(ccn4c(=O)[nH]nc34)c2=O)cc1 [Example 70, 2-[4-(3,6-Dioxo-8-phenyl-2,6-dihydro-3H-9-oxa-1,2,3a-triaza-cyclopenta[a]naphthalen-7-yl)-phenyl]-2-methyl-propionitrile] | ≤ 1 µM | > 10 µM | > 10 µM
NC1(c2ccc(-c3c(-c4ccccc4)oc4c(-c5cccc(F)c5C(=O)O)nccc4c3=O)cc2)CCC1 [Example 121, 2-(3-(4-(1-aminocyclobutyl)phenyl)-4-oxo-2-phenyl-4H-pyrano[2,3-c]pyridin-8-yl)-6-fluorobenzoic acid] | 1 to 10 µM | > 10 µM | > 10 µM
COc1ccc2oc(-c3ccccc3)c(-c3ccc(C4(N)CCC4)cc3)c(=O)c2c1 [Example 5, 3-[4-(1-Amino-cyclobutyl)-phenyl]-6-methoxy-2-phenyl-chromen-4-one] | 1 to 10 µM | 1 to 10 µM | > 10 µM
Cn1cc2c(ccc3c(=O)c(-c4ccc(C5(N)CCC5)cc4)c(-c4ccccc4)oc32)n1 [Example 61, 3-[4-(1-Amino-cyclobutyl)-phenyl]-8-methyl-2-phenyl-8H-pyrano[2,3-e]indazol-4-one] | ≤ 1 µM | ≤ 1 µM | 1 to 10 µM
COc1ccccc1-c1nccc2c(=O)c(-c3ccc(C4(N)CCC4)cc3)c(-c3ccccc3)oc12 [Example 118, 3-(4-(1-aminocyclobutyl)phenyl)-8-(2-methoxyphenyl)-2-phenyl-4H-pyrano[2,3-c]pyridin-4-one] | ≤ 1 µM | 1 to 10 µM | 1 to 10 µM

Second part, the compound after the results:

IC50 [1] | IC50 [2] | IC50 [3] | Structure (SMILES)
1 to 10 µM | 1 to 10 µM | > 10 µM | NC1(c2ccc(-c3c(-c4ccccc4)oc4cc(F)c(F)cc4c3=O)cc2)CCC1 [Example 23, 3-[4-(1-Amino-cyclobutyl)-phenyl]-6,7-difluoro-2-phenyl-chromen-4-one]
≤ 1 µM | ≤ 1 µM | 1 to 10 µM | NC1(c2ccc(-c3c(-c4ccccc4)oc4c(-c5cc[nH]n5)cccc4c3=O)cc2)CCC1 [Example 53, 3-[4-(1-Amino-cyclobutyl)-phenyl]-2-phenyl-8-(1H-pyrazol-3-14)-chromen-4-one hydrochloride]
≤ 1 µM | ≤ 1 µM | > 10 µM | NC1(c2ccc(-c3c(-c4ccccc4)oc4c(ccc5[nH]c(=O)[nH]c54)c3=O)cc2)CCC1 [Example 87, 7-[4-(1-Amino-cyclobutyl)-phenyl]-8-phenyl-1,3-dihydro-chromeno[7,8-d]imidazole-2,6-dione]
≤ 1 µM | 1 to 10 µM | 1 to 10 µM | NC1(c2ccc(-c3c(-c4ccccc4)oc4c(-c5c[nH]nc5C(F)(F)F)cccc4c3=O)cc2)CCC1 [Example 76, 3-[4-(1-Amino-cyclobutyl)-phenyl]-2-phenyl-8-(3-trifluoromethyl-1H-pyrazol-4-yl)-chromen-4-one]
> 10 µM | 1 to 10 µM | > 10 µM | Cn1ccc2c(=O)c(-c3ccc(C4(N)CCC4)cc3)c(-c3ccccc3)oc2c1=O [Example 41, 3-[4-(1-Amino-cyclobutyl)-phenyl]-7-methyl-2-phenyl-7H-pyrano[2,3-c]pyridine-4,8-dione hydrochloride]
> 10 µM | 1 to 10 µM | 1 to 10 µM | COCCn1ccc2c(=O)c(-c3ccc(C4(N)CCC4)cc3)c(-c3ccccc3)oc2c1=O [Example 31, 3-[4-(1-Amino-cyclobutyl)-phenyl]-7-(2-methoxy-ethyl)-2-phenyl-7H-pyrano[2,3-c]pyridine-4,8-dione]
1 to 10 µM | ≤ 1 µM | 1 to 10 µM | COc1cc2oc(-c3ccccc3)c(-c3ccc(C4(N)CCC4)cc3)c(=O)c2cc1OC [Example 15, 3-[4-(1-Amino-cyclobutyl)-phenyl]-6,7-dimethoxy-2-phenyl-chromen-4-one]
≤ 1 µM | ≤ 1 µM | 1 to 10 µM | Cn1cc2ccc3c(=O)c(-c4ccc(C5(N)CCC5)cc4)c(-c4ccccc4)oc3c2n1 [Example 59, 7-[4-(1-Amino-cyclobutyl)-phenyl]-2-methyl-8-phenyl-2H-9-oxa-1,2-diaza-cyclopenta[a]naphthalen-6-one]
≤ 1 µM | ≤ 1 µM | 1 to 10 µM | NC1(c2ccc(-c3c(-c4ccccc4)oc4c(ccc5nc(C(F)F)[nH]c54)c3=O)cc2)CCC1 [Example 95, 7-[4-(1-Amino-cyclobutyl)-phenyl]-2-difluoromethyl-8-phenyl-1H-chromeno[7,8-d]imidazol-6-one]
1 to 10 µM | 1 to 10 µM | > 10 µM | COc1ccc2c(=O)c(-c3ccc(C4(N)CCC4)cc3)c(-c3ccccc3)oc2c1 [Example 14]
≤ 1 µM | ≤ 1 µM | 1 to 10 µM | CC(C)Cn1cc(-c2nccc3c(=O)c(-c4ccc(C5(N)CCC5)cc4)c(-c4ccccc4)oc23)cn1 [Example 117, 3-(4-(1-aminocyclobutyl)phenyl)-8-(1-isobutyl-1H-pyrazol-4-0)-2-phenyl-4H-pyrano[2,3-c]pyridin-4-one]
1 to 10 µM | 1 to 10 µM | 1 to 10 µM | NC1(c2ccc(-c3c(-c4ccccc4)oc4ccc(Br)cc4c3=O)cc2)CCC1 [Example 19, 3-[4-(1-Amino-cyclobutyl)-phenyl]-6-bromo-2-phenyl-chromen-4-one]
1 to 10 µM | > 10 µM | > 10 µM | NC1(c2ccc(-c3c(-c4ccccc4)oc4c(-n5ccccc5=O)nccc4c3=O)cc2)CCC1 [Example 104, 3-[4-(1-Amino-cyclobutyl)-phenyl]-8-(2-oxo-2H-pyridin-1-yl)-2-phenyl-pyrano[2,3-c]pyridin-4-one hydrochloride]
≤ 1 µM | ≤ 1 µM | 1 to 10 µM | NC1(c2ccc(-c3c(-c4ccccc4)oc4c(C5CC5)cccc4c3=O)cc2)CCC1 [Example 54, 3-[4-(1-Amino-cyclobutyl)-phenyl]-8-cyclopropyl-2-phenyl-chromen-4-one hydrochloride]
≤ 1 µM | ≤ 1 µM | 1 to 10 µM | CN1C(=O)COc2c1ccc1c(=O)c(-c3ccc(C4(N)CCC4)cc3)c(-c3ccccc3)oc21 [Example 112, 8-(4-(1-aminocyclobutyl)phenyl)-4-methyl-9-phenylchromeno[8,7-b][1,4]oxazine-3,7(2H,4H)-dione]
≤ 1 µM | 1 to 10 µM | > 10 µM | NC1(c2ccc(-c3c(-c4ccccc4)oc4c(ccc5nc(C(F)(F)F)[nH]c54)c3=O)cc2)CCC1 [Example 94, 7-[4-(1-Amino-cyclobutyl)-phenyl]-8-Phenyl-2-trifluoromethyl-1H-chromeno[7,8-d]imidazol-6-one]
